We go through 37 molecules from ChEMBL document CHEMBL2203157, “5-(1,3-Benzothiazol-6-yl)-4-(4-methyl-1,3-thiazol-2-yl)-1H-imidazole derivatives as potent and selective transforming growth factor-β type I receptor inhibitors” (Bioorg Med Chem, 2012).

Data set [1] has as its target T1, TGF-beta receptor type-1 (Homo sapiens, UniProt P36897).
T1 sequence (P36897 whole entry): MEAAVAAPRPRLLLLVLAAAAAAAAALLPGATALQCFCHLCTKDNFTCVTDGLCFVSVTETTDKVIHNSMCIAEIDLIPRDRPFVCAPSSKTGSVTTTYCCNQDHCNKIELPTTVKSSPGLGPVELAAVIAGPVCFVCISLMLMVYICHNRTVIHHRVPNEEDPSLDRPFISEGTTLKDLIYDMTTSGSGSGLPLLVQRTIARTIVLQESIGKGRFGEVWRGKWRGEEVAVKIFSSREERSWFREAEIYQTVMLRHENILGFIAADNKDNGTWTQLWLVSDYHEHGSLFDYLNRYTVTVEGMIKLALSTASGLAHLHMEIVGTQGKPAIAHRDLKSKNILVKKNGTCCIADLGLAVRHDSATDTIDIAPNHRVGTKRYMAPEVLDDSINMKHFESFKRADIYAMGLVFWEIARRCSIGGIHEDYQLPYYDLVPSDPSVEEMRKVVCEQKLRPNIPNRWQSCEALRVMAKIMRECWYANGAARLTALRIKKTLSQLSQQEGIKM
Nature of the data set: Inhibition of ALK5-mediated […]-induced Smad2/3 phosphorylation in human A549 cells preincubated for 2 hrs before addition of […] after 1 hr by fluorescence analysis. The data set is classed as cell-based.

Data set [2] has as its target T1, TGF-beta receptor type-1. Nature of the data set: Inhibition of human ALK5 using GST-tagged Smad3 as substrate assessed as substrate phosphorylation after 30 mins by ELISA. (An ELISA detects its analyte on a solid surface through an enzyme-linked reagent.)
Data set [3] is described as follows: Solubility of the compound by HPLC analysis. The class given is physicochemical.
The test system of data set [4] is Mus musculus. Briefly: Inhibition of ALK5-mediated Smad2 phosphorylation in skin of C57BL/6 mouse depilation model at 3% administered topically measured after 8 hrs by Western blot analysis. The data set is classed as functional.
The subject of data set [5] is Mus musculus. Nature of the data set: Inhibition of ALK5-mediated Smad2 phosphorylation in skin of C57BL/6 mouse depilation model at 1% administered topically measured after 8 hrs by Western blot analysis. The class given is functional. A general note: Immunoblotting shows a protein as a band on a membrane.
For data set [6], the target named is Vascular endothelial growth factor receptor 2 (Homo sapiens, UniProt P35968). Nature of the data set: Inhibition of KDR.
Chain of Vascular endothelial growth factor receptor 2 (P35968 whole entry): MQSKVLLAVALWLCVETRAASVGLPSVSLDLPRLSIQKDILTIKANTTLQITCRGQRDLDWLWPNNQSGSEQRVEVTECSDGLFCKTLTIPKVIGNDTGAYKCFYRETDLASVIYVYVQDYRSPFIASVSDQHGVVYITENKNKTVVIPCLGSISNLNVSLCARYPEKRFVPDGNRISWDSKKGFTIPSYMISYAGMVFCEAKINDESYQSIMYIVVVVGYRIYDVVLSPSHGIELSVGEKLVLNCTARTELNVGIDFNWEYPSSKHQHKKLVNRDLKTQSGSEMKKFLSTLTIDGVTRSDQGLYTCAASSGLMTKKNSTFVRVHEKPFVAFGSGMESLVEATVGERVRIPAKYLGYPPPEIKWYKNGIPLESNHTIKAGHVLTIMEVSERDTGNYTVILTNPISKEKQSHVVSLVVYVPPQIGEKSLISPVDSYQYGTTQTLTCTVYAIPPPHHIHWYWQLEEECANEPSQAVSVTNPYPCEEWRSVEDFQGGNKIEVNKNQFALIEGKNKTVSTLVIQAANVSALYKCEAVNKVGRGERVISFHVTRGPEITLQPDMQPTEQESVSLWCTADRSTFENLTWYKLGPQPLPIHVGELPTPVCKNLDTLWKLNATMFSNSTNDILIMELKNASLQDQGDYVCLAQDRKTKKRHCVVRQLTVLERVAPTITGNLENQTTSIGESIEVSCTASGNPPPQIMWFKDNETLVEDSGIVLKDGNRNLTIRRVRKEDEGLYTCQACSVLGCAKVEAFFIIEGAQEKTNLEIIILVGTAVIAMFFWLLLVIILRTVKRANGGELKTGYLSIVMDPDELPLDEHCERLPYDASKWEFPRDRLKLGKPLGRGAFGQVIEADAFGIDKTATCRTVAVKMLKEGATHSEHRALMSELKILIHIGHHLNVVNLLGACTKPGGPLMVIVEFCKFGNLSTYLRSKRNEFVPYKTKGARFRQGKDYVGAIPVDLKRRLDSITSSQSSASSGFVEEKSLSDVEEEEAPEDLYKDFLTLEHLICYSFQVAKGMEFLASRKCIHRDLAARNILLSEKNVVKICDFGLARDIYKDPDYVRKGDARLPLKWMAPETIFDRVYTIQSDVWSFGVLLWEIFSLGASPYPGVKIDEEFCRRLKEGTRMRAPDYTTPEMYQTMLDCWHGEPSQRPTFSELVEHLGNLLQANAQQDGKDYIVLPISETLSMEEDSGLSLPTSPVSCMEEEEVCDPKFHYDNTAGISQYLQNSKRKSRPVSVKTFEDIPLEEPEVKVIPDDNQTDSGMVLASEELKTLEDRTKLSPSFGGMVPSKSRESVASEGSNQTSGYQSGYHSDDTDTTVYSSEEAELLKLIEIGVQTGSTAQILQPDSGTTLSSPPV

Structures are written as SMILES. Converted amounts (≈) assume the structure as drawn.

In general, IC50 refers to the concentration needed to halve the response being measured. One may read the solubility as the dissolved amount per volume that the medium holds. Lower therefore signals little dissolved substance. As to `Cc1csc(-c2nc(CNC(=O)OC(C)C)[nH]c2-c2ccc3ncsc3c2)n1`, the figures for the concentration for half-maximal inhibition (IC50) against TGF-beta receptor type-1 [1] and on TGF-beta receptor type-1 [2] were 41 nM and 8.6 nM, respectively. The molecule further gave a solubility in data set [3] of 18.2 mg/mL (≈ 44 mM).
`Cc1csc(-c2nc(CNC(=O)OCC(C)(C)C)[nH]c2-c2ccc3ncsc3c2)n1`: the figures for the half-inhibitory concentration (IC50) against TGF-beta receptor type-1 [1] and at TGF-beta receptor type-1 [2] were 79 nM and 9.3 nM, respectively.
`CCc1nc(-c2nc(C)cs2)c(-c2ccc3ncsc3c2)[nH]1`: the figures for the IC50 against TGF-beta receptor type-1 [1] and at TGF-beta receptor type-1 [2] were 35 nM and 9 nM, respectively.
Consider `Cc1csc(-c2nc(C)[nH]c2-c2ccc3ncsc3c2)n1`, for which the IC50 amounted to 17 nM against TGF-beta receptor type-1 [1] and 5.8 nM on TGF-beta receptor type-1 [2]. Besides, the solubility in data set [3] worked out at 18.3 mg/mL (≈ 58.6 mM).
For the molecule `Cc1csc(-c2nc(C3CCCCC3)[nH]c2-c2ccc3ncsc3c2)n1`, the IC50 against TGF-beta receptor type-1 [1] turned out to be 75 nM; on TGF-beta receptor type-1 [2] it was 12 nM. In data set [3], this molecule came in with a solubility greater than 31.8 mg/mL.
As for `CNC(=O)CCCc1nc(-c2nc(C)cs2)c(-c2ccc3ncsc3c2)[nH]1`, the IC50 against TGF-beta receptor type-1 [1] was found to be 230 nM; at TGF-beta receptor type-1 [2], 37 nM.
The corresponding values for `CCCCNC(=O)c1nc(-c2nc(C)cs2)c(-c2ccc3ncsc3c2)[nH]1` are 420 nM and 45 nM.
Turning to `CCNC(=O)NCc1nc(-c2nc(C)cs2)c(-c2ccc3ncsc3c2)[nH]1`, the results for the IC50 against TGF-beta receptor type-1 [1] and on TGF-beta receptor type-1 [2] were 130 nM and 11 nM, respectively.
On to `CCOC(=O)NCc1nc(-c2nc(C)cs2)c(-c2ccc3ncsc3c2)[nH]1`, for which the IC50 against TGF-beta receptor type-1 [1] was 35 nM; at TGF-beta receptor type-1 [2], 4.5 nM.
The corresponding values for `Cc1csc(-c2nc(C3CCC(=O)CC3)[nH]c2-c2ccc3ncsc3c2)n1` are 89 nM and 23 nM.
In the same order, the values of `CCCCCCc1nc(-c2nc(C)cs2)c(-c2ccc3ncsc3c2)[nH]1` are 120 nM and 7 nM.
For the molecule `Cc1csc(-c2[nH]c(CN3CCCC3=O)nc2-c2ccc3ncsc3c2)n1`, the results for the IC50 on TGF-beta receptor type-1 [1] and at TGF-beta receptor type-1 [2] were 130 nM and 26 nM, respectively.
The corresponding values for `CCNC(=O)CCc1nc(-c2nc(C)cs2)c(-c2ccc3ncsc3c2)[nH]1` are 71 nM and 12 nM.
Consider `Cc1csc(-c2nc(C(C)C)[nH]c2-c2ccc3ncsc3c2)n1`, for which the IC50 against TGF-beta receptor type-1 [1] is 48 nM; at TGF-beta receptor type-1 [2] it was 8.2 nM.
Consider `CCCOC(=O)NCc1nc(-c2nc(C)cs2)c(-c2ccc3ncsc3c2)[nH]1`, for which the IC50 against TGF-beta receptor type-1 [1] was 36 nM; at TGF-beta receptor type-1 [2] it was 7.3 nM. The molecule also registered a solubility in data set [3] of 9.8 mg/mL (≈ 23.7 mM).
Consider `CCCc1nc(-c2nc(C)cs2)c(-c2ccc3ncsc3c2)[nH]1`, for which the values for the IC50 at TGF-beta receptor type-1 [1] and on TGF-beta receptor type-1 [2] were 33 nM and 8.1 nM, respectively. Further, the solubility in data set [3] worked out at 14.9 mg/mL (≈ 43.8 mM).
Consider `CCNC(=O)OCc1nc(-c2nc(C)cs2)c(-c2ccc3ncsc3c2)[nH]1`, for which the IC50 on TGF-beta receptor type-1 [1] stood at 93 nM; at TGF-beta receptor type-1 [2], 7.2 nM.
In the same order, the values of `Cc1csc(-c2nc(CCCCC(N)=O)[nH]c2-c2ccc3ncsc3c2)n1` are 190 nM and 8.3 nM.
With `Cc1csc(-c2nc(CC(C)C)[nH]c2-c2ccc3ncsc3c2)n1`, the IC50 against TGF-beta receptor type-1 [1] worked out at 43 nM; at TGF-beta receptor type-1 [2], 9 nM.
In the case of `Cc1csc(-c2nc(C3CC3)[nH]c2-c2ccc3ncsc3c2)n1`, the figures for the IC50 at TGF-beta receptor type-1 [1] and at TGF-beta receptor type-1 [2] were 45 nM and 8.8 nM, respectively. In data set [3], this molecule displayed a solubility of 23.6 mg/mL (≈ 69.7 mM).
With `Cc1csc(-c2nc[nH]c2-c2ccc3ncsc3c2)n1`, the IC50 was determined as 8.7 nM on TGF-beta receptor type-1 [1] and 2.7 nM at TGF-beta receptor type-1 [2].
Turning to `Cc1csc(-c2nc(C(C)(C)C)[nH]c2-c2ccc3ncsc3c2)n1`, the IC50 is 68 nM on TGF-beta receptor type-1 [1] and 14 nM at TGF-beta receptor type-1 [2]. The molecule further came in with a solubility in data set [3] of 3.49 mg/mL (≈ 9.84 mM).
As to `Cc1csc(-c2nc(C3CCNCC3)[nH]c2-c2ccc3ncsc3c2)n1`, the IC50 at TGF-beta receptor type-1 [2] came to 240 nM.
As to `CCCCCOC(=O)NCc1nc(-c2nc(C)cs2)c(-c2ccc3ncsc3c2)[nH]1`, the 50% inhibitory concentration (IC50) against TGF-beta receptor type-1 [1] worked out at 140 nM; at TGF-beta receptor type-1 [2], 11 nM.
With `Cc1csc(-c2nc(C3CCOCC3)[nH]c2-c2ccc3ncsc3c2)n1`, the IC50 is 99 nM at TGF-beta receptor type-1 [1] and 21 nM on TGF-beta receptor type-1 [2]. For the same molecule, the solubility in data set [3] is 26.1 mg/mL (≈ 68.2 mM).
With `CCCS(=O)(=O)NCc1nc(-c2nc(C)cs2)c(-c2ccc3ncsc3c2)[nH]1`, the IC50 was found to be 150 nM on TGF-beta receptor type-1 [1] and 17 nM at TGF-beta receptor type-1 [2].
Turning to `Cc1csc(-c2nc(C3CCCC3)[nH]c2-c2ccc3ncsc3c2)n1`, the IC50 on TGF-beta receptor type-1 [1] amounted to 40 nM; on TGF-beta receptor type-1 [2], 8.7 nM. Moreover, in data set [3], the solubility worked out at 19.8 mg/mL (≈ 54 mM).
With `Cc1csc(-c2nc(C(F)(F)F)[nH]c2-c2ccc3ncsc3c2)n1`, the IC50 against TGF-beta receptor type-1 [1] came to 49 nM; on TGF-beta receptor type-1 [2], 5.8 nM. In data set [3], the solubility was 2.4 mg/mL (≈ 6.55 mM).
Regarding `CCCCNCc1nc(-c2nc(C)cs2)c(-c2ccc3ncsc3c2)[nH]1`, the IC50 at TGF-beta receptor type-1 [1] was found to be 72 nM; at TGF-beta receptor type-1 [2], 13 nM.
For the molecule `CC(=O)NCCCc1nc(-c2nc(C)cs2)c(-c2ccc3ncsc3c2)[nH]1`, the results for the IC50 against TGF-beta receptor type-1 [1] and on TGF-beta receptor type-1 [2] were 150 nM and 26 nM, respectively.
`CCCC(=O)N(C)Cc1nc(-c2ccc3ncsc3c2)c(-c2nc(C)cs2)[nH]1`: the figures for the IC50 against TGF-beta receptor type-1 [1] and on TGF-beta receptor type-1 [2] were 110 nM and 28 nM, respectively.
Consider `COC(=O)NCc1nc(-c2nc(C)cs2)c(-c2ccc3ncsc3c2)[nH]1`, for which the IC50 against TGF-beta receptor type-1 [1] turned out to be 38 nM; on TGF-beta receptor type-1 [2], 7.7 nM. Besides, the solubility in data set [3] came to 3.93 mg/mL (≈ 10.2 mM).
With `CCCC(=O)CCc1nc(-c2nc(C)cs2)c(-c2ccc3ncsc3c2)[nH]1`, the results for the IC50 against TGF-beta receptor type-1 [1] and on TGF-beta receptor type-1 [2] were 42 nM and 9 nM, respectively.
In the case of `CCCCOC(=O)NCc1nc(-c2nc(C)cs2)c(-c2ccc3ncsc3c2)[nH]1`, the concentration for half-maximal inhibition (IC50) on TGF-beta receptor type-1 [1] turned out to be 74 nM; on TGF-beta receptor type-1 [2], 9.1 nM.
The corresponding values for `CCC(=O)NCCc1nc(-c2nc(C)cs2)c(-c2ccc3ncsc3c2)[nH]1` are 130 nM and 25 nM.
As for `Cc1csc(-c2nc(CN3CCOC3=O)[nH]c2-c2ccc3ncsc3c2)n1`, the IC50 against TGF-beta receptor type-1 [1] is 92 nM; at TGF-beta receptor type-1 [2], 8.1 nM.
Take `Cc1csc(-c2nc(CNC(=O)OCC(C)C)[nH]c2-c2ccc3ncsc3c2)n1`: the “inhibition (INH)” value in the data set with Mus musculus [4] amounted to 90%; in the data set on Mus musculus [5] it was 59%. In addition, the IC50 in data set [6] was 1080 nM; at TGF-beta receptor type-1 [1] it was 36 nM; on TGF-beta receptor type-1 [2], 5.5 nM.
